Data from patent US6740645B1, “17β-acyl-17α-propynyl-11β-(cyclic amino) aryl steroids and their derivatives having antagonist hormonal properties” (Research Triangle Institute, priority 1999, dated 2004).

System: rabbit uterus
Experiment: anti-McGinty test for antiprogestational activity (McPhail Index)
Type: in vivo
Conditions: for McPhail Index: estrogen-primed immature female rabbits, n = 3
Method: Biological activity was examined by means of the anti-McGinty test for antiprogestational activity. Immature female rabbits weighing 1000 to 1100 grams were primed with estrogen (5 μg of estradiol in sesame oil as vehicle, given subcutaneously) for 6 days, followed by a surgical procedure to introduce the test compounds into the uterine horn [see for example Teruhiko Tamaya, et al., Local progestational and antiprogestational effects of steroids and their metabolites on the rabbit uterus. Japanese Journal of Fertility and Sterility 24:48-51 (1979)]. A single dose of test compound in sesame oil as vehicle, accompanied by a single dose of progesterone (0.3 μg in sesame oil as vehicle) was given. On the third day (dosing being day one) the animals were sacrificed. The uteri were then removed, weighed and a section was kept in 10% formalin for microslide preparation for McPhail Index [M. K. McPhail, The Journal of Physiology, 83: 10 (1934)] determination. […] Antiprogestational compounds should block the effect of progesterone on the McPhail Index, which is zero in the absence of progesterone.

[1] = total dose 0.3 (μg) of test compound + progesterone 0.3 μg, single dose into uterine horn
[2] = total dose 3 of test compound + progesterone 0.3 μg, single dose into uterine horn
[3] = total dose 30 of test compound + progesterone 0.3 μg, single dose into uterine horn

CC(=O)[C@H]1CC[C@H]2[C@@H]3CCC4=CC(=O)CC[C@]4(C)[C@H]3CC[C@]12C [Progesterone, progesterone]
McPhail Index (progesterone (P) alone, total dose 0.3 (μg), uterine horn): 2.2 +/− 0.3

C#CC1(C(C)=O)CCC2C3CCC4=CC(=O)CCC4=C3C(c3ccc(N4CCCCC4)cc3)CC21C (stereo not drawn) [RTI-6617-048, 11β-[4-(N-Piperidino)phenyl]-17α-ethynyl-19-norpregna-4,9-diene-3,20-dione]
McPhail Index [1]: 1.94 +/− 0.31
McPhail Index [2]: 0.89 +/− 0.3
McPhail Index [3]: 0.0 +/− 0.0

CC#C[C@]1(C(C)=O)CC[C@H]2[C@@H]3CCC4=CC(=O)CCC4=C3[C@@H](c3ccc(N(C)C)cc3)C[C@@]21C [RTI-6617-040, 11β-[4-(N,N-Dimethylamino)phenyl]-17α-(1-propynyl)-19-norpregna-4,9-diene-3,20-dione]
McPhail Index [1]: 1.83 +/− 0.36
McPhail Index [2]: 0.0 +/− 0.0
McPhail Index [3]: 0.0 +/− 0.0

CC#CC1(C(C)=O)CCC2C3CCC4=CC(=O)CCC4=C3C(c3ccc(N4CCCCC4)cc3)CC21C (stereo not drawn) [RTI-6617-041, 11β-[4-(N-piperidino)phenyl]-17α-(1-propynyl)-19-norpregna-4,9-diene-3,20-dione]
antiprogestational effect (in words) (0.3 μg dose, anti-McGinty test): marked effect
antiprogestational potency compared with RTI-6617-048 and RTI-6617-040 (in words) (anti-McGinty test, Table 1): markedly more potent
McPhail Index [1]: 0.78 +/− 0.21
McPhail Index [2]: 0.0 +/− 0.0
McPhail Index [3]: 0.0 +/− 0.0
